Read-outs that look alike come from different tables or passages of the source.
What was measured:
[1] = tested on: agonist-dependent nuclear export of HDAC5; assay: HDAC5 nuclear export assay (GFP-HDAC5, Cellomics imaging); format: cell-based; conditions: Rattus norvegicus, Ventricular myocyte, 2 h, read-out: Inhibitory Activity HDAC
Procedure: Compounds are evaluated in the HDAC5 nuclear export assay, a 384-well plate-based assay that enables high throughput screening (HTS) to identify small molecules that block agonist-dependent nuclear export of HDAC5. […] Neonatal rat ventricular myocytes (NRVMs) are infected with GFP-HDAC5 encoding virus and plated on gelatin-coated 384-well dishes. […] Following two hours of stimulation, cells are fixed and GFP-HDAC5 localization quantified using the Cellomics system, which provides a read-out of relative fluorescence intensity in the cytoplasmic versus nuclear compartment.

protein kinase D2 (PKD2) = biological target: T1, protein kinase D2 (PKD2) (Homo sapiens, UniProt Q9BZL6); assay: PKD2 TR-FRET (LANCE) kinase assay; format: biochemical; conditions: full length wild-type enzyme, 20 μM ATP, syntide-2 substrate; read-out: Inhibitory Activity PKD2
T1 construct: This assay is performed with full length wild-type enzyme purchase from Invitrogen; purchased Invitrogen
T1 sequence (Q9BZL6 1-878): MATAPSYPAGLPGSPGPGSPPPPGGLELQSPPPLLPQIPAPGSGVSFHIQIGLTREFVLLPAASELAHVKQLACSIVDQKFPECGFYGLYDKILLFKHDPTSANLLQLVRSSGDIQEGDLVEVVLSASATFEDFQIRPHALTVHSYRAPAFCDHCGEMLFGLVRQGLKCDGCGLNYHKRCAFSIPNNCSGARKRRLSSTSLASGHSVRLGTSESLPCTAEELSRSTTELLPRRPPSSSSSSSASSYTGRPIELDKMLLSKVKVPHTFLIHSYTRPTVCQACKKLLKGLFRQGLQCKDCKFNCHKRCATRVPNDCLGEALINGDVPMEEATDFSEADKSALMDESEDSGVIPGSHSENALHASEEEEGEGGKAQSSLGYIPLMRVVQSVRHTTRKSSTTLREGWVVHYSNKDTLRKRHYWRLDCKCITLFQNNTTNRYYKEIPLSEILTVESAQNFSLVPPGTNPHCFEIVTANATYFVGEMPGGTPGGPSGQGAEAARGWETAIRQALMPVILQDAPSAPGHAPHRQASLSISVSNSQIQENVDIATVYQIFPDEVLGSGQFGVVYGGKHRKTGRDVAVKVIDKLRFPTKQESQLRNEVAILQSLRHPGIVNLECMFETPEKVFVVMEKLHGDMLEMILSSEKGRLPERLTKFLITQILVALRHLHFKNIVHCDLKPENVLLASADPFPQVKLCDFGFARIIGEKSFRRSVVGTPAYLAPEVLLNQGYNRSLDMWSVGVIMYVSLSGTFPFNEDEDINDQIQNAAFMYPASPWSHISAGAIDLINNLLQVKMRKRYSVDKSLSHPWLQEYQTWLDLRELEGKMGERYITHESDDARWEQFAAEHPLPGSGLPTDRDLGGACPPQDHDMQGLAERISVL
Text: (§1) The assay to measure protein kinase D2 (PKD2) activity is a time-resolved fluorescence resonance transfer (TR-FRET) assay using PerkinElmer's LANCE™ technology. In this case, a biotinylated syntide-2 peptide is used as the substrate in this reaction. Phosphorylation of the syntide-2 substrate is detected by a specific antibody that recognizes the phosphorylated peptide. A second fluorophore, APC, is conjugated to streptavidin that binds the biotinylated syntide-2 peptide. […] Therefore, when the europium labeled secondary antibody binds on the phosphorylated peptide, it is brought into close contact with the APC and excites this fluorophore.
(§2) This assay is performed with full length wild-type enzyme purchase from Invitrogen. The reaction buffer consists of 35 mM Tris-HCl pH7.5, 5 mM MgCl2, 0.02% Tween-20, 20 μM ATP, 1 mM DTT and 0.2 μg/mL PKD2 enzyme. The enzyme reaction is initiated by the addition of 2 μM syntide-2 peptide substrate and the reaction carried out for 50 minutes at room temperature. The reaction is stopped by a stop/detection Buffer consisting of 50 mM EDTA, 0.18 mg/mL rabbit polyclonal anti-phospho Syntide-2 antibody, 0.5 nM europium labeled anti-rabbit IgG and 10 nM streptavidin conjugated APC. After a one hour incubation with the stop/detection buffer, the reaction is read on an Envision 2100 Reader using a LANCE™ Eu/APC dual protocol. […] IC50 values are calculated using an Activity Base (IDBS) software program.

protein kinase D3 (PKD3) = biological target: T2, protein kinase D3 (PKD3) (Homo sapiens, UniProt O94806); assay: PKD3 TR-FRET (LANCE) kinase assay; format: biochemical; conditions: full length wild-type enzyme, 20 μM ATP, syntide-2 substrate; read-out: Inhibitory Activity PKD3
T2 construct: This assay is performed with full length wild-type enzyme that is purchased from Invitrogen; purchased Invitrogen
T2 sequence (O94806 1-890): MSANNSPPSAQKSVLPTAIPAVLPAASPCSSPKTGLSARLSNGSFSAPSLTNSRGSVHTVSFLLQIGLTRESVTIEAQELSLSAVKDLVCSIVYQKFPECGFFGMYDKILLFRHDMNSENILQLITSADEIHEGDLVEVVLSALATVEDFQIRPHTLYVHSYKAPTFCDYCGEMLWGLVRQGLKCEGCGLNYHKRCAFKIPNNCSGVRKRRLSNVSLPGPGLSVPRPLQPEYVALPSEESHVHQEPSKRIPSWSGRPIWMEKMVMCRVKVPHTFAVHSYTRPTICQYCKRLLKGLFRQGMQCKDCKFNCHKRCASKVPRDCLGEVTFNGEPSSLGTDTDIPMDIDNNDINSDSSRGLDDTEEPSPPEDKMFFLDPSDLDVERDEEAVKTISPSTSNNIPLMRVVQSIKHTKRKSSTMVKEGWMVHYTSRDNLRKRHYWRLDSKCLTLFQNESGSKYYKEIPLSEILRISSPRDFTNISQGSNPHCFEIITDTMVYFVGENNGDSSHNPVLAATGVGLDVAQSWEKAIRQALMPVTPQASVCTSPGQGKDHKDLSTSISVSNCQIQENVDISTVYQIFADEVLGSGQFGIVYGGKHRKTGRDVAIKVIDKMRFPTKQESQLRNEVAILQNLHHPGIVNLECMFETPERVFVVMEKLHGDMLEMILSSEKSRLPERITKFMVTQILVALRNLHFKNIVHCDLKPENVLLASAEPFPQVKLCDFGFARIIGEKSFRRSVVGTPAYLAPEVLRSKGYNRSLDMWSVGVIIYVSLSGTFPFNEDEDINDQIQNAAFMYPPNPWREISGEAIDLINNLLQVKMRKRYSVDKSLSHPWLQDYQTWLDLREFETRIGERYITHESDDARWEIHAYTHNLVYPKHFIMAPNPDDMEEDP
Text: as §1, with “D3 (PKD3)” for “D2 (PKD2)”
as §2, with “that is purchased” for “purchase”, “PKD3” for “PKD2”, “buffer” for “Buffer”

protein kinase D1 (PKD1) = biological target: T3, protein kinase D1 (PKD1) (Homo sapiens, UniProt Q15139); assay: PKD1 TR-FRET (LANCE) kinase assay; format: biochemical; conditions: full length wild-type enzyme, 20 μM ATP, syntide-2 substrate; read-out: Inhibitory Activity PKD1
T3 construct: This assay is performed with full length wild-type enzyme that is expressed and purified from Sf9 insect cells; made in house; host or cells: Sf9 insect cells
T3 sequence (Q15139 1-912): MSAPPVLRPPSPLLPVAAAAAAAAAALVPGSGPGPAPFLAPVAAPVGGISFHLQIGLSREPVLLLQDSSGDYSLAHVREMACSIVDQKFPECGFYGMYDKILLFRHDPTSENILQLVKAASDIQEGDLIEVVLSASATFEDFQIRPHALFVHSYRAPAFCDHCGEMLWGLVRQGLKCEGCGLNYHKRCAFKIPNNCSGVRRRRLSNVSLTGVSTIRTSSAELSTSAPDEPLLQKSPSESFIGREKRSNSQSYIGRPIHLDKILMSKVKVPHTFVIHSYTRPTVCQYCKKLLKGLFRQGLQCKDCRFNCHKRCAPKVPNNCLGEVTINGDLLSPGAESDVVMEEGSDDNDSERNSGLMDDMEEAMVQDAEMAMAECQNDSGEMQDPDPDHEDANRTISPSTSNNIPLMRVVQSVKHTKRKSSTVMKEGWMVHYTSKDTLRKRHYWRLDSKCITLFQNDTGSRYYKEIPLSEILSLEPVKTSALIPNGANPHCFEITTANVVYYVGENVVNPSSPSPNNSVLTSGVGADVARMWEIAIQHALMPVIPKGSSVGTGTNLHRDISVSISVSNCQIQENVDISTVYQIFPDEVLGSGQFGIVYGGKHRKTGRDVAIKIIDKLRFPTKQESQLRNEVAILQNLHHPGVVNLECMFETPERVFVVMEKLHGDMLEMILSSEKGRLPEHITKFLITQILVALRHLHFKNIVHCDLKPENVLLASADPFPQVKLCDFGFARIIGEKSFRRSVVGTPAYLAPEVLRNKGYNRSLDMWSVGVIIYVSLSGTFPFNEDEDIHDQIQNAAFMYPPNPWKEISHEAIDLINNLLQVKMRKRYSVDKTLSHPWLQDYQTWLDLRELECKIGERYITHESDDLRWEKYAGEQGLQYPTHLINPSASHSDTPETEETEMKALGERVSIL
Text: as §1, with “D1 (PKD1)” for “D2 (PKD2)”
as §2, with “that is expressed and purified” for “purchase”, “Sf9 insect cells.” for “Invitrogen.”, “PKD1” for “PKD2”, “APC.” for “APC. After a one hour incubation with the stop/detection buffer, the reaction is read on an Envision 2100 Reader using a LANCE™ Eu/APC dual protocol.”

| SMILES | IC50 [1] | IC50 (protein kinase D2 (PKD2)) | IC50 (protein kinase D3 (PKD3)) | IC50 (protein kinase D1 (PKD1)) | IC50 ([1]; neonatal rat ventricular myocytes, PGF2α stimulation, two hours) |
| --- | --- | --- | --- | --- | --- |
| CC(C)Nc1cc(-c2cc(-c3cn[nH]c3)cc(N3CCNCC3)n2)ccn1 [iso-Propyl-[6-piperazin-1-yl-4-(1H-pyrazol-4-yl)-[2,4′]bipyridinyl-2′-yl]-amine] | 92 nM | 3 nM | < 1 nM | – | – |
| C[C@@H]1CN(c2cc(C(N)=O)cc(-c3ccnc(NC4CCCCC4)c3)n2)CCN1 [2′-Cyclohexylamino-6-((R)-3-methylpiperazin-1-yl)-[2,4′]bipyridinyl-4-carboxylic acid amide] | 679 nM | 60 nM | – | 6 nM | – |
| Cn1ccc(Nc2cc(-c3cc(C#N)cc(N4CCNCC4)n3)ccn2)n1 [2′-(1-Methyl-1H-pyrazol-3-ylamino)-6-piperazin-1-yl-[2,4′]bipyridinyl-4-carbonitrile] | – | 76 nM | – | 8 nM | > 1000 nM |

— patent US20110092505A1, “ORGANIC COMPOUNDS” (priority 2008, published 2011)
